What was measured:
A549 lung cancer cells = assay: Cell cycle analysis (propidium iodide, flow cytometry); format: cell-based, human; conditions: A549, serum-starved, 24 h (vehicle 1%)
Procedure: Since DJ4 inhibits phosphorylation of MLC, we hypothesized that DJ4-treated cells are unable to complete cell division and arrest in G2/M phase of the cell cycle. To test this hypothesis, A549 lung cancer cells were synchronized in the G1 phase by serum-starvation for 24 h. After serum replenishment, cells were further treated with 2.5 µM, 5 µM, and 10 µM DJ-4 for 16-, 24-, and 48 h (Figure 3A). Before treatment with DJ4 (time zero), about 80% of cells were in the G1 phase, 20% in the G2/M phase, and essentially none in the S phase. In vehicle treated control cells, there were minimal cells in the G2/M phase at both 24 h (1%) and 48 h (8%). […] At 48 h, cells remained arrested in the G2/M phase, but also, there was an increase in the sub-G1 cell population indicating apoptotic cells.
Figure 3 DJ4 arrests A549 lung cancer cells in G2/M phase and induces apoptotic cell death in NSCLC and breast cancer cells. (A). A549 cells were serum-starved for 24 h and treated for 16 h, 24 h, and 48 h with indicated concentrations. Propidium iodide stained cells were analyzed for DNA content by flow cytometry. The cell cycle graphs indicate distribution of cells in the G1, S, and G2/M phases of cell cycle. Sub-G1 cell population indicates apoptotic cells. (B). Annexin V staining of A549 cells. The cells were treated with indicated concentrations and durations. Percent annexin V + cells were analyzed using Muse^TM cell analyzer. Error bars indicate SEM. n = 2. (C). Analysis of annexin V + ve and mitochondrial membrane depolarized cells. MDA-MB-231 cells were treated for 48 h at the indicated concentrations. Staurosporin (2.5 µM) was used as a positive control. Error bars indicate SEM. n = 2. * p < 0.05. […] These are best readings and their digits are not certain: DMSO 7 and 14; DJ4 1.25 μM 10 and 22; DJ4 2.5 μM 23 and 40; Staurosporin 12 and 40 / Panel B, 24 h: the ** is read as belonging to the 5 μM bar (10), not the 2.5 μM bar (8); this is not fully certain […]

CDK11 = assay: KINOMEscan competition binding assay; design: species or system human; conditions: CDK11, 10 µM
Text: To examine specificity of DJ4 to different human kinases, we performed a KINOMEscan profiling assay (DiscoverX, Fremont, CA, USA). The KINOMEscan assay consists of a panel of more than 480 kinases of different classes (TK/TKL/STE/CK1/AGC/CAMK/CMGC/others), including clinically relevant mutants, atypical kinases, lipid, and pathogen kinases. […] However, we also recognized the limitations of DJ4 that preclude its clinical development and the need for further optimization of the DJ4 chemotype.
The KINOMEscan®, in vitro competition binding assay, was performed by Lead Hunter Discovery Services (DiscoverX Corporation, Fremont, CA, USA) to determine the kinase specificity of DJ4, a novel kinase inhibitor [19, 44]. The KINOMEscan® panel consists of more than 480 kinases, including clinically relevant mutants, lipid, atypical, and pathogen kinases, plus a growing panel of activation-state specific assays. The primary screen was performed using a single concentration of 10 µM, and the results for DJ4 binding interactions are reported as percent of control (%Ctrl). The %Ctrl is calculated as follows: [(DJ4 signal-positive control signal)/(negative control DMSO signal-positive control signal)] x […]. The human kinome tree annotation for DJ4 is plotted with Reaction Biology’s Kinase Mapper and KinMap web interface tool http://kinhub.org/kinmap (accessed on 09 January 2023).

Molecule `O=C1N/C(=N\CCc2ccccc2)S/C1=C/c1c[nH]c2ncccc12` [DJ4] has a G2/M cell population (A549 lung cancer cells; 2.5 µM) of 31%, a G2/M cell population (A549 lung cancer cells; 5 µM) of 42% and a G2/M cell population (A549 lung cancer cells; 10 µM) of 45%. For the same molecule, the “inhibition (KINOMEscan)” value (CDK11) was “more than 98%”.
